# US7417049B2 (priority 2002, dated 2008)
# Target: α7 nAChR Subtype (Rattus norvegicus, UniProt Q05941)
# Type: binding
# Conditions: read-out: KD of radioligand
# Sequence of α7 nAChR Subtype (Q05941 23-502 limits assumed): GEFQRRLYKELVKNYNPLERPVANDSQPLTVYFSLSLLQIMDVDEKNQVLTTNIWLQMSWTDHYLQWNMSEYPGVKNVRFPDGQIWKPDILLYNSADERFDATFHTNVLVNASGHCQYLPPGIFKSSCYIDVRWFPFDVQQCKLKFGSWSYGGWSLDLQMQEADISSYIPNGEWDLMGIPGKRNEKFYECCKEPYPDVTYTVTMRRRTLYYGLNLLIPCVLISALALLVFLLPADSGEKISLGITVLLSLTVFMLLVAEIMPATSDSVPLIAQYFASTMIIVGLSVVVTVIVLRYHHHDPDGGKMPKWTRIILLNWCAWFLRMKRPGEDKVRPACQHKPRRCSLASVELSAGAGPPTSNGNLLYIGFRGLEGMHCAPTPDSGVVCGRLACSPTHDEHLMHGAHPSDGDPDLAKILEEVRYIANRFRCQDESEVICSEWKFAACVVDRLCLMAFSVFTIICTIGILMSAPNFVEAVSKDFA
substance,measurement,value
[^125I]α-Bungarotoxin [[^125I]-α-BTX],Kd,1.67 nM
